This series in a line: in vitro. Particulars: human, hela cells, % viability.

Structures are written as SMILES.

In general, viability refers to a read-out of living cells in per cent, often relative to untreated cells.

With `O=C(O)c1ccc(N2CC(C(=O)Nc3ccc(F)cc3)CC2=O)cc1` (stereo not shown) [CBK286794], the viability at 28.5 h, 10 µM was 85.3%. The same measure, in the same setting: the same measure for `Cc1cc(I)ccc1OCCCCN1CCN(C)CC1` [CBK269652C]: 91.3%; for `CC1CCCCN1C(=O)CN1C(=O)N2CCN=C2c2ccccc21` (stereo not shown) [CBK283921]: 102%.

For `Cc1nc2ccc(C(=O)NC(C)c3ccccn3)cc2s1` (stereo not shown) [CBK281890], the viability at 28.5 h, 10 µM came out at 94.6%. Still for that read-out and setting: next, `COC(=O)c1cc(C#N)c(=O)n(CC(O)COc2ccccc2)c1` (stereo not shown) [CBK304991]: 99.3%; `Cc1nc(SCC(=O)NC(C)c2cccnc2)oc1C` (stereo not shown) [CBK282198]: 93.2%; `O=C1c2ccccc2C(=O)N1CCc1nn2c(-c3cccnc3)nnc2s1` [CBK269793]: 97.9%. Same read-out and setting: next, `Cn1c(SCC(=O)N2CCN(c3ccccc3)CC2)nc2cc(Cl)ccc21` [CBK298295]: 99.7%.

Turning to `CN(C)C(=O)c1ccc(Cn2nc(C(=O)Nc3nccs3)c3ccccc32)cc1` [CBK047701], the viability at 28.5 h, 10 µM (bulk resorufin, single well) came to 95.4%. Consider `COC(=O)c1c(C)oc2cc(Br)c(OCC(=O)c3ccc(Cl)cc3)cc12` [CBK264946], for which the viability at 28.5 h, 10 µM worked out at 83.5%.

Take `CC(=O)Nc1ccc(S(=O)(=O)Nc2ccccc2C(=O)O)cc1` [CBK042361]: the viability at 28.5 h, 10 µM was 107%. Same read-out and setting: the same measure for `COc1nccc(N2CCN(C)C3(CCNC(=O)CC3)C2)c1C#N` (stereo not shown) [CBK307676]: 116%.

For `O=C(O)C(=N\Nc1ccccc1)/C(=N/Nc1ccccc1)C(=O)O` [CBK278303N], the viability at 28.5 h, 10 µM stood at 100%.

Turning to `CC(=O)c1ccc(-c2cn3ccnc3c(N3CCN(C)CC3)n2)s1` [CBK037957], the viability at 28.5 h, 10 µM is 94.4%. Regarding `Cc1cc(OC(C)C(=O)Nn2cnnc2)ccc1Cl` (stereo not shown) [CBK269690], the viability at 28.5 h, 10 µM is 98.1%. On the same count and under the same terms, next, `Cc1n[nH]c(NC(=O)/C=C/C(=O)O)c1-c1ccc(F)cc1` [CBK287068]: 96.7%; `Cc1ccccc1OCCCNCCN1CCOCC1` [CBK268590C]: 106%; `Nc1n[nH]c(=O)c2ncn([C@H]3C[C@@H](O)[C@@H](CO)O3)c12` [CBK201233]: 91.4%.

Turning to `O=C(O)COc1cccc(NC(=O)c2ccccc2)c1` [CBK264602], the viability at 28.5 h, 10 µM turned out to be 88.3%.

In the case of `O=C(c1nccs1)C1CCN(C(=O)c2ccccc2F)CC1` [CBK284174], the viability at 28.5 h, 10 µM was 93.3%.

In the case of `O=C(Nc1cc(NC(=O)C2C3C=CC(C3)C2C(=O)O)ccc1Cl)c1cccs1` (stereo not shown) [CBK263959], the viability at 28.5 h, 10 µM is 89.6%. Turning to `CC(Oc1ccccc1)C(=O)N1CCN(C/C=C/c2ccccc2)CC1` (stereo not shown) [CBK269050], the viability at 28.5 h, 10 µM was found to be 98%. Still for that read-out and setting: next, `Cc1ccc(C)c2c(C)c(C(=O)NCC[S+](C)[O-])[nH]c12` (stereo not shown) [CBK282484]: 76.5%; `CCN(CC)C(=O)CN1CC=C(c2ccc(C)o2)CC1` [CBK283497]: 100%; `O=C(c1cccnc1)N1CCN(S(=O)(=O)c2ccccc2[N+](=O)[O-])CC1` [CBK264227]: 97%. Take `O=C1CCN([C@H]2C[C@@H](O)[C@@H](CO)O2)C(=O)N1` [CBK201288]: the viability at 28.5 h, 10 µM was 93.8%. The same measure, in the same setting: next, `CCC(C)NC(=O)Cn1c(C2CCOCC2)cc2cccnc21` (stereo not shown) [CBK285390]: 104%; `Cc1csc2c(C3CCN(C(=O)c4ccccn4)CC3)nc(C)n12` [CBK285244]: 77.4%; `CC(=O)Nc1ccc(OCC(O)CNC2CCCC2)cc1` (stereo not shown) [CBK267857C]: 87.6%. Turning to `Cc1cc(COC(=O)N2CCSCC2)cc(C)n1` [CBK200153], the viability at 28.5 h, 10 µM was found to be 107%. Same read-out and setting: next, `CCn1c2ccccc2c2cc(CN3CCN(S(=O)(=O)c4ccc(NC(C)=O)cc4)CC3)ccc21` [CBK264248]: 94.1%.

For `O=C(NCCS(=O)(=O)c1ccccc1)c1cnc(-c2ccc(Cl)cc2)c(-c2ccco2)c1` [CBK037546], the viability at 28.5 h, 10 µM is 96.4%. For `COc1ccc2[nH]cc(CCNC(=O)c3ccc(-c4cccc(N(C)C)c4)nc3N(C)C(C)=O)c2c1` [CBK076589], the viability at 28.5 h, 10 µM came out at 101%. With `Nc1ncc(-c2cccc3ccccc23)nc1NC1CCCCC1` [CBK063588], the viability at 28.5 h, 10 µM was 94%. As to `COc1ccc(C(NC(=O)c2cc3ccccc3[nH]2)C2CC2)cc1` (stereo not shown) [CBK297896], the viability at 28.5 h, 10 µM stood at 97.9%. Same read-out and setting: the same measure for `C#CCN(C1CCc2ccccc21)S(=O)(=O)c1cc(C(N)=O)n(C)c1` (stereo not shown) [CBK304287]: 95.1%; for `O=C(NCCC(=O)N1CCCCC1)c1cccc(OCc2cscn2)c1` [CBK306384]: 98.5%; for `COC(=O)c1c(N=C(S)NN2CCN(C)CC2)sc2c1CCC(C)C2` (stereo not shown) [CBK267125]: 83.9%.

Regarding `Cc1ccc(NS(=O)(=O)c2cc(C(=O)N3CCN(C)CC3)ccc2C)cc1C` [CBK269268], the viability at 28.5 h, 10 µM was determined as 91.2%. On the same count and under the same terms, next, `Cc1cc(-c2cn3cc(C(=O)N(C)CC(C)O)nc3c(=O)n2C)c(C)o1` (stereo not shown) [CBK307154]: 88%; `Cc1ccc(S(=O)(=O)Nc2ccc(C(=O)Nc3ccc(S(=O)(=O)N4CCCCC4)cc3)cc2)cc1` [CBK269000]: 101%; `OC[C@H]1CCCN1c1nc(Br)cn2c(-c3ccccn3)cnc12` [CBK094394]: 100%. The same measure, in the same setting: the same measure for `CCCc1cc(CNC(=O)c2cc(C3CC3)nn2C)on1` [CBK282048]: 102%; for `Cc1ccc(-n2nc(C(=O)NC3(C#N)CCSC3)cc2C)cc1` (stereo not shown) [CBK306403]: 86.9%; for `COc1ccc(Oc2cncc(OC3CCN(CC4CC4)C3)n2)cc1OC` (stereo not shown) [CBK084412]: 89.3%. On the same count and under the same terms, the same measure for `CCCN(Cc1nccn1C)C(=O)Cn1nc(C)c2ccccc2c1=O` [CBK307441]: 95.4%. In the case of `COc1ccc([C@H]2CN(Cc3ccccc3)[C@@H]3CCN(C(=O)c4ccccc4)C[C@H]23)cc1` [CBK285550], the viability at 28.5 h, 10 µM amounted to 86.6%. Same read-out and setting: next, `O=C(CSc1cc(Cl)ccc1Cl)Nc1cccc(Cl)c1` [CBK263712]: 113%; `COc1ccc(CNC(=O)c2sc3nc4c(c(C(F)(F)F)c3c2N)CCC4)cc1OC` [CBK074568]: 85.7%. Same read-out and setting: next, `O=C(CCCOc1ccc(Cl)cc1Cl)NO` [CBK288436]: 81.7%; `CC(CN1CCOCC1)C(=O)N1CC(C(=O)N2CCN(c3ccccc3)CC2)C1` (stereo not shown) [CBK286047]: 90.6%; `Nc1ncc(Br)nc1N1CCC[C@@H]1CO` [CBK085450]: 105%. Same read-out and setting: the same measure for `Cc1ccc(N2CC(C(=O)NCCc3ccc(S(N)(=O)=O)cc3)CC2=O)cc1` (stereo not shown) [CBK267531]: 84.4%; for `NCCn1cc(-c2cccc(F)c2)c(C2CCOCC2)n1` [CBK281696]: 91.1%. On to `Oc1nc(CN2CCN(Cc3ccc4c(c3)OCO4)CC2)nc2ccccc12` [CBK074355], for which the viability at 28.5 h, 10 µM worked out at 110%. Same read-out and setting: the same measure for `CCc1ccc(NC(=O)N2CCCCC2CCn2ccnc2)cc1` (stereo not shown) [CBK307453]: 110%; for `O=C(CSc1nnc(CN2CCOCC2)n1-c1ccc(Cl)cc1)N1CCc2ccccc21` [CBK269008]: 97.9%; for `Cc1nc(NC(=O)C2CC(=O)N(c3cccc(C(C)C)c3)C2)sc1-c1n[nH]c(=S)n1C` (stereo not shown) [CBK295306]: 91%. Same read-out and setting: next, `Cc1sc(NC(=O)COc2ccccc2)c(C(N)=O)c1-c1ccccc1` [CBK268164]: 97.8%; `CCNC(=O)N1CCC(Oc2cc(C)ccc2F)(C(=O)O)CC1` [CBK307147]: 87.9%; `O=C(c1cccc(S(=O)(=O)Nc2ccc(Br)cc2)c1)N1CCCC1` [CBK296709]: 67.4%.

On to `Nc1nc2c(s1)c(O)nc(=O)n2Cc1ccccc1` [CBK291257], for which the viability at 28.5 h, 10 µM amounted to 88.6%.

With `CCc1nn(CC(=O)N2CCCC2)c(=O)c2cc3ccsc3n12` [CBK284120], the viability at 28.5 h, 10 µM was determined as 84.2%. Same read-out and setting: next, `CN1CCN(c2ccccc2NC(=O)c2cccc3c(Br)cccc23)CC1` [CBK267894]: 92.9%. The same measure, in the same setting: the same measure for `Cc1cc2nn(-c3ccccc3)nc2cc1NC(=O)c1ccc(-c2cccc([N+](=O)[O-])c2)o1` [CBK263859]: 99.6%.

Regarding `Cc1cccc(C(=O)Nc2ccccc2C(=O)Nc2cccc(C(=O)O)c2C)c1` [CBK265911], the viability at 28.5 h, 10 µM was found to be 99.4%. Still for that read-out and setting: next, `CC(=O)Nc1ccc(-c2ccc3n(c2=O)C[C@H]2C[C@@H]3CN(C(=O)C3CCCCC3)C2)cc1` [CBK289188]: 84.6%. On the same count and under the same terms, next, `Cc1ccc(C)c(CSC2CCN(C3CCOCC3)C2=O)c1` (stereo not shown) [CBK304865]: 103%. Still for that read-out and setting: next, `O=[N+]([O-])c1ccccc1OCCCn1c2ccccc2c2ccccc21` [CBK264799]: 92.1%; `COc1ccc(CCNC(=S)NN2CCN(C)CC2)cc1OC` [CBK266884]: 93.2%; `O=C(NCCO)NC(=S)c1ccccc1` [CBK267213]: 95.2%. As to `C(=C\CSc1nc2ccccc2[nH]1)/CSc1nc2ccccc2[nH]1` [CBK263090], the viability at 28.5 h, 10 µM amounted to 107%. Turning to `CC1=C(c2ccc(OC(C)(C)CN3CCCC3)cc2)C(C)CCC1` (stereo not shown) [CBK012357C], the viability at 28.5 h, 10 µM turned out to be 86.1%. Same read-out and setting: next, `Cc1ccc(Cl)cc1Nc1nc2nc(C)c(NCC3CC3)cn2n1` [CBK008522]: 105%; `Cc1nnc2sc(-c3ccc(CNC(=S)NC(=O)c4ccccc4[N+](=O)[O-])cc3)nn12` [CBK268588]: 84.6%. Still for that read-out and setting: next, `COc1cc(CN2CCNC(=O)C2CC(=O)O)cc(OC)c1` (stereo not shown) [CBK269752]: 105%. Regarding `Cn1c(-c2ccc(CN3CCCC3)cc2)cc2onc(-c3cccnc3)c2c1=O` [CBK048501C], the viability at 28.5 h, 10 µM stood at 99.1%. Still for that read-out and setting: the same measure for `O=C(O)c1cccc(Cn2ccc3c(F)cccc32)c1` [CBK003453]: 95.9%. The same measure, in the same setting: the same measure for `CC(=O)Nc1cccc(NC(=O)CN(C)S(=O)(=O)c2ccc(F)cc2)c1` [CBK269951]: 90.2%.

Values taken from PMC12040169 (PLOS Biology, 2025).
